Where a name gives a salt, the structure may show the parent alone. One block for each molecule: values may come before it.
Assays:
tumor cells = test: Micron-sized imiquimod suspension in combination with ethanol ablation, subcutaneous tumor model; format: in vivo, mice; details: imiquimod suspension 12 mg/mL peritumoral; absolute ethanol 30 μL intratumoral
Text: First, a subcutaneous tumor model in mice was established. In particular, mice were inoculated with tumor cells on their back. Once the tumors grew to a volume of 100 mm^3, the mice were randomly divided into 5 groups with 5 mice in each group.
The mice were monitored for the changes in tumor volumes, and the curves of tumor growth were plotted.

[1] = system: colon cancer (CT26) tumors; test: Oxaliplatin in combination with micron-sized imiquimod suspension, two-sided tumor model; format: in vivo, mice; details: Day 15 after treatment; 30 μL intratumoral; oxaliplatin 4 mg/mL, imiquimod 6 mg/mL
Description: Mice were inoculated with different amounts of colon cancer (CT26) tumors on both sides of the back in mice (the inoculated amount on the left side was ⅕ of that on the right side) to establish a subcutaneous two-sided tumor model, wherein the tumor on the right side was deemed an in-situ tumor, and that on the left right was deemed a distal tumor. Once the in-situ tumors reached a size of about 100 mm^3, the mice were randomly divided into 4 groups, which were treated respectively.
On Day 1 of the treatment, the in-situ tumor was administered by intratumoral injection, wherein the concentration of oxaliplatin was 4 mg/mL, and the concentration of imiquimod was 6 mg/mL. After administration, the tumor volume in mice was recorded to plotted a growth curve of ice.

[2] = Platinum in blood and organs (ICP-MS) after intratumoral oxaliplatin with or without imiquimod suspension; details: platinum in blood after intratumoral injection
Text: Mice were inoculated with colon cancer (CT26) tumor cells on the back of the tumor in mice to establish a subcutaneous tumor model in mice.

mouse colon CT26 tumor = test: Oxaliplatin chemotherapy combined with imiquimod micro-formulation, in-situ and distal tumor growth; format: in vivo, mice; details: intratumoral injection, chemotherapeutic alone
Description: The length and width of the tumor in mice were regularly measured, and the volume of tumor was calculated as follows: (length×(width) 2)/2.

[3] = 72 h after intratumoral injection, 6 mg/kg, CT26 mice
Description: Experimental method: Mice were transplanted with mouse colon cancer (CT26) tumor on their backs, and randomly divided to 3 groups with 3 mice in each group for the study of drug distribution behavior. • Group 1: The mice were intratumorally injected with the micromolecule imiquimod hydrochloride with an injection dose of 6 mg/kg; • Group 2: The mice were intratumorally injected with imiquimod nano-particles (with average particle size of about 100 nm) encapsulated with polylactic-glycolic acid copolymer (PLGA) with an injection dose of 6 mg/kg; and • Group 3: The mice were intratumorally injected with imiquimod microparticles (the present formulation) with an injection dose of 6 mg/kg.

in vivo [4] = details: mouse, whole blood, 6 mg/kg
Description: Water-insoluble R837 powder was prepared into microparticles with a particle size of 1-3 microns, which were intratumorally injected and then monitored for the pharmacokinetics and intratumoral retention time.
Experimental method: Mice were transplanted with mouse colon cancer (CT26) tumor on their backs, and randomly divided to 3 groups with 3 mice in each group for the pharmacokinetic study.
Group 1: The mice were intratumorally injected with micromolecule imiquimod hydrochloride with an injection dose of 6 mg/kg.
Group 2: The mice were intratumorally injected with imiquimod/PLGA nano-particles (with an average particle size of about 100 nm) with an injection dose of 6 mg/kg.
Group 3: The mice were intratumorally injected with imiquimod microparticles (the present formulation) with an injection dose of 6 mg/kg.

in vivo [5] = details: mouse, whole blood
Description: Mice were inoculated with CT26 tumor cells on their back to establish a CT26 subcutaneous tumor model of mice. Mice with the same tumor size were equally divided to 3 groups with 3 mice in each group.

SMILES: CCO [absolute ethanol, ethanol]
Tumor growth / tumor volumes (FIG. 14) (tumor cells): not highly different from those of the control group

SMILES: O=C1[O][Pt]2([NH][C@@H]3CCCC[C@H]3[NH]2)[O]C1=O [OXA, oxaliplatin]
Tumor Inhibition Rate, Distant tumor [1]: 41.87%
Tumor Inhibition Rate, In-situ tumor [1]: 69.56%
Tmax (H) [2]: 3 H
Growth of distal tumors (FIG. 11) (mouse colon CT26 tumor): does not produce significant inhibitory effect
Growth of in-situ tumors (FIG. 10) (mouse colon CT26 tumor): can inhibit the growth of in-situ tumors

Blood concentration of drug (at 48 h and 72 h after intratumoral injection 6 mg/kg): below the limit of detection
Average Retention Time (intratumoral injection 6 mg/kg, CT26 mice, average of 3): 11 h
Retention of imiquimod in tumor and main organs (FIG. 3) [3]: extremely low overall retention
half-life (in vivo [4]): 12 h
AUC (in vivo [5]): 140 ng·h/mL
Cmax (in vivo [5]): 17.4 ng/mL
Tmax (in vivo [5]): 0.5 h
half-life (in vivo [5]): 7.7 h
SMILES: CC(C)Cn1cnc2c(N)nc3ccccc3c21 [Micromolecule imiquimod hydrochloride, imiquimod hydrochloride]
